SMILES strings stand for the structures. Several values for one entry are separate records, joined by “and”; a condition that tells them apart may be missing. Equal values may be shown once. Inconclusive results and toxic doses are left out.

The results in this text go back to PubChem BioAssay AID330 (DTP/NCI, 2004).

In the assay the test system is P388 leukemia ip, CD2F1 mice, survival T/C. The assay can be described thus: NCI In Vivo Anticancer Drug Screen. Data for tumor model P388 Leukemia (intraperitoneal) in CD2F1 (CDF1) mice. As to conditions: endpoint: median survival time, higher = longer survival. In outline: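 Mice carrying the transplanted tumor received test compound or vehicle. Survival was recorded in each group, and the value is the treated-group measurement divided by that of the vehicle-treated control group.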

The mark [1] stands for this setting: dose: 60.0 mg/kg/injection, schedule: Q01DX005 (ip), vehicle: Klucel (hydroxypropylcellulose) (HPC).
Setting [2] is: dose: 120.0 mg/kg/injection, schedule: Q01DX005 (ip), vehicle: Klucel (hydroxypropylcellulose) (HPC).
Setting [3] is: dose: 240.0 mg/kg/injection, schedule: Q01DX005 (ip), vehicle: Klucel (hydroxypropylcellulose) (HPC).
Setting [4] is: dose: 100.0 mg/kg/injection, schedule: Q01DX009 (ip), vehicle: saline with Tween-80.
The mark [5] stands for this setting: dose: 200.0 mg/kg/injection, schedule: Q01DX009 (ip), vehicle: saline with Tween-80.
[6] abbreviates: dose: 400.0 mg/kg/injection, schedule: Q01DX009 (ip), vehicle: saline with Tween-80.
Setting [7] is: dose: 50.0 mg/kg/injection, schedule: Q01DX005 (ip), vehicle: Klucel (hydroxypropylcellulose) (HPC).
The mark [8] stands for this setting: dose: 100.0 mg/kg/injection, schedule: Q01DX005 (ip), vehicle: Klucel (hydroxypropylcellulose) (HPC).
Where [9] appears, read: dose: 200.0 mg/kg/injection, schedule: Q01DX005 (ip), vehicle: Klucel (hydroxypropylcellulose) (HPC).
Where [10] appears, read: dose: 60.0 mg/kg/injection, schedule: Q01DX005 (ip), vehicle: saline with Tween-80.
[11] abbreviates: dose: 120.0 mg/kg/injection, schedule: Q01DX005 (ip), vehicle: saline with Tween-80.
Where [12] appears, read: dose: 240.0 mg/kg/injection, schedule: Q01DX005 (ip), vehicle: saline with Tween-80.
The mark [13] stands for this setting: dose: 100.0 mg/kg/injection, schedule: Q01DX001 (ip), vehicle: saline.
The mark [14] stands for this setting: dose: 100.0 mg/kg/injection, schedule: Q04DX003 (ip), vehicle: Klucel (hydroxypropylcellulose) (HPC).
The mark [15] stands for this setting: dose: 100.0 mg/kg/injection, schedule: Q04DX003 (ip), vehicle: saline with Tween-80.
The mark [16] stands for this setting: dose: 200.0 mg/kg/injection, schedule: Q04DX003 (ip), vehicle: saline with Tween-80.
The mark [17] stands for this setting: dose: 400.0 mg/kg/injection, schedule: Q04DX003 (ip), vehicle: saline with Tween-80.

Take `Nc1cc2cc([N+](=O)[O-])ccc2oc1=O`: the T/C reads like this: (dose: 50.0 mg/kg/injection, schedule: Q01DX005 (ip), vehicle: Klucel + Tween-80) 96 % of control; (dose: 100.0 mg/kg/injection, schedule: Q01DX005 (ip), vehicle: Klucel + Tween-80) 90 % of control; (dose: 200.0 mg/kg/injection, schedule: Q01DX005 (ip), vehicle: Klucel + Tween-80) 87 % of control.

Turning to `COC1(OC)C(c2ccccc2)C(C#N)(C#N)C1(OC)OC` (stereo unspecified), the T/C reads like this: under setting [1], 102 % of control; under setting [2], 100 % of control; under setting [3], 99 % of control.

`O=C1/C(=C/c2ccccc2)Cc2ccccc21`: the T/C runs as follows: under setting [4], 100 % of control; under setting [5], 100 % of control; under setting [6], 95 % of control.

`O=C(NO)C1CCCCC1O` (stereo unspecified): the T/C was 100 % of control (dose: 12.5 mg/kg/injection, schedule: Q04DX003 (ip), vehicle: saline); 100 % of control (dose: 25.0 mg/kg/injection, schedule: Q04DX003 (ip), vehicle: saline); 110 % of control (dose: 50.0 mg/kg/injection, schedule: Q04DX003 (ip), vehicle: saline); 110 % of control (dose: 400.0 mg/kg/injection, schedule: Q04DX003 (ip), vehicle: saline).

Turning to `C1=C(CC[Si]23OCCN(CCO2)CCO3)CCCC1`, the T/C reads like this: under setting [7], 110 % of control; under setting [8], 103 % of control; under setting [9], 103 % of control.

On to `C/C(CCCC(C)(C)C(=O)O)=N\NC(N)=O`, for which the T/C under setting [10] was 100 % of control, the T/C under setting [11] was 94 % of control and the T/C under setting [12] is 97 % of control.

For the compound `COCC1(C)CCCC2(C)C3=CC(O)CCC3CCC12` (stereo unspecified), the T/C under setting [13] is 98 % of control; the T/C (dose: 200.0 mg/kg/injection, schedule: Q01DX001 (ip), vehicle: saline) was 97 % of control; the T/C (dose: 400.0 mg/kg/injection, schedule: Q01DX001 (ip), vehicle: saline) was 98 % of control.

For `O=C1CC=C2C3CC4N(CCC45c4ccccc4N1C25)C/C3=C\CBr` (stereo unspecified), the T/C is, setting by setting: (dose: 1.87 mg/kg/injection, schedule: Q01DX005 (ip), vehicle: Klucel (hydroxypropylcellulose) (HPC)) 105 % of control; (dose: 3.75 mg/kg/injection, schedule: Q01DX005 (ip), vehicle: Klucel (hydroxypropylcellulose) (HPC)) 103 % of control; (dose: 7.5 mg/kg/injection, schedule: Q01DX005 (ip), vehicle: Klucel (hydroxypropylcellulose) (HPC)) 101 % of control and 105 % of control.

For `Cc1ccccc1-c1nc2c3ccccc3c3ccccc3c2[nH]1`, the T/C is 103 % of control under setting [7], 96 % of control under setting [8] and 100 % of control under setting [9].

Regarding `c1ccc(CCc2ccnc3c2ccc2ccccc23)cc1`, the T/C is 112 % of control (dose: 25.0 mg/kg/injection, schedule: Q04DX003 (ip), vehicle: Klucel (hydroxypropylcellulose) (HPC)); 99 % of control (dose: 50.0 mg/kg/injection, schedule: Q04DX003 (ip), vehicle: Klucel (hydroxypropylcellulose) (HPC)); 99 % of control under setting [14].

In the case of `CC1=C2CCCCCC2(O)OC1=O` (stereo unspecified), the T/C is, setting by setting: (dose: 6.25 mg/kg/injection, schedule: Q01DX001 (ip), vehicle: saline) 109 % of control; (dose: 12.5 mg/kg/injection, schedule: Q01DX001 (ip), vehicle: saline) 111 % of control; (dose: 25.0 mg/kg/injection, schedule: Q01DX001 (ip), vehicle: saline) 104 % of control and 117 % of control; (dose: 50.0 mg/kg/injection, schedule: Q01DX001 (ip), vehicle: saline) 120 % of control; under setting [13], 100 % of control.

As for `CC(CN1CCCCC1)C(=O)c1ccc(-c2ccccc2)cc1` (stereo unspecified), the T/C (dose: 25.0 mg/kg/injection, schedule: Q01DX009 (ip), vehicle: saline with Tween-80) was 100 % of control; the T/C (dose: 50.0 mg/kg/injection, schedule: Q01DX009 (ip), vehicle: saline with Tween-80) was 105 % of control; the T/C under setting [4] was 100 % of control.

As for `CCOP(O)(=S)OCC.[Yb]`, the T/C by setting is: under setting [14], 96 % of control; (dose: 200.0 mg/kg/injection, schedule: Q04DX003 (ip), vehicle: Klucel (hydroxypropylcellulose) (HPC)) 99 % of control; (dose: 400.0 mg/kg/injection, schedule: Q04DX003 (ip), vehicle: Klucel (hydroxypropylcellulose) (HPC)) 90 % of control.

In the case of `COc1ccc(C(=Nc2ccc(C)cc2)c2ccc([N+](=O)[O-])cc2)cc1`, the T/C is 90 % of control under setting [4]; 95 % of control under setting [15]; 90 % of control under setting [5]; 95 % of control under setting [16]; 90 % of control under setting [6]; 100 % of control under setting [17].

Turning to `NCC=C1C2CC3CC(C2)CC1C3`, the T/C was 105 % of control and 107 % of control and 120 % of control (dose: 6.25 mg/kg/injection, schedule: Q01DX009 (ip), vehicle: saline); 107 % of control (2×) and 117 % of control (dose: 12.5 mg/kg/injection, schedule: Q01DX009 (ip), vehicle: saline); 111 % of control and 94 % of control (dose: 25.0 mg/kg/injection, schedule: Q01DX009 (ip), vehicle: saline); 103 % of control (dose: 50.0 mg/kg/injection, schedule: Q01DX009 (ip), vehicle: saline).

For the compound `C#CCCCOC1CCCCO1` (stereo unspecified), the T/C was 100 % of control (dose: 60.0 mg/kg/injection, schedule: Q01DX005 (ip), vehicle: saline); 100 % of control (dose: 120.0 mg/kg/injection, schedule: Q01DX005 (ip), vehicle: saline); 100 % of control (dose: 240.0 mg/kg/injection, schedule: Q01DX005 (ip), vehicle: saline).

Take `c1ccc(-c2nnn(-n3nnc(-c4ccccc4)n3)n2)cc1`: the T/C runs as follows: under setting [15], 97 % of control; under setting [16], 100 % of control; under setting [17], 97 % of control.

For the compound `Cn1cnc([N+](=O)[O-])c1[Se]c1nc(N)nc2nc[nH]c12`, the T/C runs as follows: (dose: 3.12 mg/kg/injection, schedule: Q01DX009 (ip), vehicle: dextrose) 117 % of control; (dose: 3.12 mg/kg/injection, schedule: Q01DX009 (ip), vehicle: water) 104 % of control; (dose: 6.25 mg/kg/injection, schedule: Q01DX009 (ip), vehicle: dextrose) 112 % of control; (dose: 6.25 mg/kg/injection, schedule: Q01DX009 (ip), vehicle: water) 116 % of control; (dose: 25.0 mg/kg/injection, schedule: Q01DX009 (ip), vehicle: dextrose) 161 % of control; (dose: 25.0 mg/kg/injection, schedule: Q01DX009 (ip), vehicle: water) 106 % of control. The T/C reads like this: (dose: 50.0 mg/kg/injection, schedule: Q01DX009 (ip), vehicle: dextrose) 123 % of control; (dose: 50.0 mg/kg/injection, schedule: Q01DX009 (ip), vehicle: water) 116 % of control.

For `C[C@]12CC[C@H]3C(=CCc4cc(O)ccc43)[C@@H]1C/C(=N\O)C2=O`, the T/C by setting is: under setting [4], 115 % of control; under setting [15], 100 % of control; under setting [5], 120 % of control; under setting [16], 104 % of control; under setting [17], 95 % of control.

On to `COc1cccc2c1C(=O)c1c(O)c3c(c(O)c1C2=O)C[C@@](O)(C(C)=O)C[C@@H]3OC1CC(O)C(O)C(C)O1` (stereo partly specified), for which the T/C runs as follows: (dose: 12.5 mg/kg/injection, schedule: Q04DX003 (ip), vehicle: water) 123 % of control; (dose: 100.0 mg/kg/injection, schedule: Q04DX003 (ip), vehicle: water) 161 % of control; (dose: 200.0 mg/kg/injection, schedule: Q04DX003 (ip), vehicle: water) 192 % of control.

Take `COC(=O)C12CC3(C)OC1(C)OC(=O)C2(Cc1ccccc1)N3C(C)=O` (stereo unspecified): the T/C under setting [10] was 104 % of control, the T/C under setting [11] was 104 % of control and the T/C under setting [12] was 97 % of control.

`Cc1csc2nc(-c3cccs3)nn12`: the T/C reads like this: (dose: 30.0 mg/kg/injection, schedule: Q01DX005 (ip), vehicle: Klucel (hydroxypropylcellulose) (HPC)) 103 % of control; under setting [1], 98 % of control; under setting [2], 103 % of control; under setting [3], 105 % of control.
